Assays:
[1] = target: Sigma non-opioid intracellular receptor 1 (Homo sapiens, UniProt Q99720); test: DRUGMATRIX: Sigma1 radioligand binding (ligand: [3H] Haloperidol); assay type: cell membranes, Jurkat, Membrane; conditions: jurkat; Not Active = under 50% inhibition at 10 µM
[2] = target: Vascular endothelial growth factor receptor 1 (Homo sapiens, UniProt P17948); assay type: cell-based; conditions: huvec; also: in other assays of this panel Not Active means under 50% inhibition at 10 µM
[3] = target: T1, Cholecystokinin receptor type A (Homo sapiens, UniProt P32238); assay type: cell membranes, Membrane; conditions: 1321-n1; also: in other assays of this panel Not Active means under 50% inhibition at 10 µM
T1 sequence (P32238 whole entry): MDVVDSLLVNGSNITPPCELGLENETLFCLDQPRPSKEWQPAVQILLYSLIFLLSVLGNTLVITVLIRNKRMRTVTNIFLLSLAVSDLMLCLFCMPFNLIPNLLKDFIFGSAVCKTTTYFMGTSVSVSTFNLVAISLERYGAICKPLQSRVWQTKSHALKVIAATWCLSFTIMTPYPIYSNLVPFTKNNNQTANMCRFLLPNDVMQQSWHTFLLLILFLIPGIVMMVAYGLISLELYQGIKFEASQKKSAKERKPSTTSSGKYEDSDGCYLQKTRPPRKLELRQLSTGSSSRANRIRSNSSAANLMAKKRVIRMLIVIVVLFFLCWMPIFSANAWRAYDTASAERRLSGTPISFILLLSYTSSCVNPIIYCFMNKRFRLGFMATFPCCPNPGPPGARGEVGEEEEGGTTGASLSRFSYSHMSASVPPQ

[4] = target: T2, 3-hydroxy-3-methylglutaryl-coenzyme A reductase (Homo sapiens, UniProt P04035); design: species or system Escherichia coli;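 also: enzyme inhibition assay of HMG-CoA reductase using radiolabeled [14C]HMG-CoA as substrate; in other assays of this panel Not Active means under 50% inhibition at 10 µM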
T2 sequence (P04035 whole entry): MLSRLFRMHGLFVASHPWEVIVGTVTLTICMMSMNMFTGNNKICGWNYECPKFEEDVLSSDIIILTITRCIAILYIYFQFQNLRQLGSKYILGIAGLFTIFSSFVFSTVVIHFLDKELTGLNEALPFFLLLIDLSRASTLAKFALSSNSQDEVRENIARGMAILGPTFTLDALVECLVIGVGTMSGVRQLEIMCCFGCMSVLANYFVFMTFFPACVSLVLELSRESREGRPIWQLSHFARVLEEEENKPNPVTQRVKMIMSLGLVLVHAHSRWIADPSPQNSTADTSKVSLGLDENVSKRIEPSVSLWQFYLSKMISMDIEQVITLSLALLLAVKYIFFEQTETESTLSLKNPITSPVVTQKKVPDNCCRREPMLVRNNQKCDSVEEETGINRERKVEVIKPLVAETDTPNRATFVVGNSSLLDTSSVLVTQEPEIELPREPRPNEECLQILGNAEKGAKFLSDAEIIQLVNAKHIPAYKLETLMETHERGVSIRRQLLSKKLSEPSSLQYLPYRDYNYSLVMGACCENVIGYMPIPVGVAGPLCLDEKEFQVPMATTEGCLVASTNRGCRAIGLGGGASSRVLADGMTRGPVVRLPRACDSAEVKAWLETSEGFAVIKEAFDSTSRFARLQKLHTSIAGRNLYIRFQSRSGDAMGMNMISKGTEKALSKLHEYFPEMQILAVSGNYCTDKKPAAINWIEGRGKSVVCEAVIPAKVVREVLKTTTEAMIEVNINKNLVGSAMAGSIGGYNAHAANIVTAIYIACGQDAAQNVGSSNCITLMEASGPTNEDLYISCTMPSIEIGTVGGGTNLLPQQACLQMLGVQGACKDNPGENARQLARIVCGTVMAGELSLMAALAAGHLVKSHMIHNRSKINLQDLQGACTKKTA

[5] = DRUGMATRIX: Potassium Channel [KATP] radioligand binding (ligand: [3H] Glyburide); assay type: cell membranes, Membrane; conditions: hit-t15; Not Active = under 50% inhibition at 10 µM
Progesterone receptor = target: T3, Progesterone receptor (Bos taurus, UniProt Q690N0); test: DRUGMATRIX: Progesterone radioligand binding (ligand: [3H] R-5020); assay type: tissue-based, Uterus; conditions: Not Active = under 50% inhibition at 10 µM
T3 sequence (Q690N0 whole entry): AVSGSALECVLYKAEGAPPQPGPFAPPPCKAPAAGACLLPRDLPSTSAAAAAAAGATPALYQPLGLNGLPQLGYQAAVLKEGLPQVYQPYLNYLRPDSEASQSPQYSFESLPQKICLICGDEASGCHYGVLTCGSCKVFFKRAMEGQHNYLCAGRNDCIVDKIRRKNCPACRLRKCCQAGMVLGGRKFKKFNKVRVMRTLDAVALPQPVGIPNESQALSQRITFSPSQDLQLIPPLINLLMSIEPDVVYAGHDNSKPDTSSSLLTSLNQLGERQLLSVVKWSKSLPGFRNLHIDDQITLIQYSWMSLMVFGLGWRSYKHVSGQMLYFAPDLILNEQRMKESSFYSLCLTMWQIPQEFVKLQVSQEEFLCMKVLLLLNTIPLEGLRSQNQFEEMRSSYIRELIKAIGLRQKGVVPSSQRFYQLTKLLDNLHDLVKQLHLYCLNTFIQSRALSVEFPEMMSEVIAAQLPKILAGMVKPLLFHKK

Neutrophil elastase = target: T4, Neutrophil elastase (Homo sapiens, UniProt P08246); assay type: tissue-based;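 also: inhibition of neutrophil elastase enzyme activity, measured with a p-nitroanilide-linked peptide substrate; in other assays of this panel Not Active means under 50% inhibition at 10 µM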
T4 sequence (P08246 whole entry): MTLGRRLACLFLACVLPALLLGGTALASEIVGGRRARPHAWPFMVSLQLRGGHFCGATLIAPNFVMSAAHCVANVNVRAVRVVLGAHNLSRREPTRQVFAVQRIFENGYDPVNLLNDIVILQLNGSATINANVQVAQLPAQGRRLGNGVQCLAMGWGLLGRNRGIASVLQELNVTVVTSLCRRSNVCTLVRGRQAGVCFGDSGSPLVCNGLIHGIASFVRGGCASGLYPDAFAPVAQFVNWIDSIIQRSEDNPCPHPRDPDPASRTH

[6] = target: Epidermal growth factor receptor (Homo sapiens, UniProt P00533); test: DRUGMATRIX: Protein Tyrosine Kinase, EGF Receptor enzyme inhibition (substrate: Poly(Glu:Tyr)); assay type: cell-based, Insect cells; conditions: insect cells; Not Active = under 50% inhibition at 10 µM
Cytochrome P450 2C19 = Cytochrome P450 2C19 (Homo sapiens, UniProt P33261); conditions: bti-tn-5b1-4; also: in other assays of this panel Not Active means under 50% inhibition at 10 µM
Chain of Cytochrome P450 2C19 (P33261 whole entry): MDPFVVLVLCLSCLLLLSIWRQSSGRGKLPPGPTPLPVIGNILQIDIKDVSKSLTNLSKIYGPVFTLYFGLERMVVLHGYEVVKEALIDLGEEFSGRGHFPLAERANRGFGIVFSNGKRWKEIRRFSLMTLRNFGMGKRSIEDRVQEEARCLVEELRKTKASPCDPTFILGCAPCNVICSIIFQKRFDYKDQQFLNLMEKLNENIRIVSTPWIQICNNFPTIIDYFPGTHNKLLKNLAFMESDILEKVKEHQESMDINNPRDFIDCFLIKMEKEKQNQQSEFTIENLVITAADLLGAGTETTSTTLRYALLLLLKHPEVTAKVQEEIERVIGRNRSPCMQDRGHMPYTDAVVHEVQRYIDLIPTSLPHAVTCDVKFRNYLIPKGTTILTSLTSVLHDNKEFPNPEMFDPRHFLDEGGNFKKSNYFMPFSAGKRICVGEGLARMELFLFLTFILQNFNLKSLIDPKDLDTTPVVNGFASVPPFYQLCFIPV

Chain of Sigma non-opioid intracellular receptor 1 (Q99720 whole entry): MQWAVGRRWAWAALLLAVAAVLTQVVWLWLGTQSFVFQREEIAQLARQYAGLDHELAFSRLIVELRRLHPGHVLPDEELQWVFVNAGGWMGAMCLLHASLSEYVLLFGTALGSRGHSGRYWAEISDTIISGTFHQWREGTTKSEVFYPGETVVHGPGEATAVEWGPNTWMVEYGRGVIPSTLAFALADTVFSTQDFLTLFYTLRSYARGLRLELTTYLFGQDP
Chain of Epidermal growth factor receptor (P00533 whole entry): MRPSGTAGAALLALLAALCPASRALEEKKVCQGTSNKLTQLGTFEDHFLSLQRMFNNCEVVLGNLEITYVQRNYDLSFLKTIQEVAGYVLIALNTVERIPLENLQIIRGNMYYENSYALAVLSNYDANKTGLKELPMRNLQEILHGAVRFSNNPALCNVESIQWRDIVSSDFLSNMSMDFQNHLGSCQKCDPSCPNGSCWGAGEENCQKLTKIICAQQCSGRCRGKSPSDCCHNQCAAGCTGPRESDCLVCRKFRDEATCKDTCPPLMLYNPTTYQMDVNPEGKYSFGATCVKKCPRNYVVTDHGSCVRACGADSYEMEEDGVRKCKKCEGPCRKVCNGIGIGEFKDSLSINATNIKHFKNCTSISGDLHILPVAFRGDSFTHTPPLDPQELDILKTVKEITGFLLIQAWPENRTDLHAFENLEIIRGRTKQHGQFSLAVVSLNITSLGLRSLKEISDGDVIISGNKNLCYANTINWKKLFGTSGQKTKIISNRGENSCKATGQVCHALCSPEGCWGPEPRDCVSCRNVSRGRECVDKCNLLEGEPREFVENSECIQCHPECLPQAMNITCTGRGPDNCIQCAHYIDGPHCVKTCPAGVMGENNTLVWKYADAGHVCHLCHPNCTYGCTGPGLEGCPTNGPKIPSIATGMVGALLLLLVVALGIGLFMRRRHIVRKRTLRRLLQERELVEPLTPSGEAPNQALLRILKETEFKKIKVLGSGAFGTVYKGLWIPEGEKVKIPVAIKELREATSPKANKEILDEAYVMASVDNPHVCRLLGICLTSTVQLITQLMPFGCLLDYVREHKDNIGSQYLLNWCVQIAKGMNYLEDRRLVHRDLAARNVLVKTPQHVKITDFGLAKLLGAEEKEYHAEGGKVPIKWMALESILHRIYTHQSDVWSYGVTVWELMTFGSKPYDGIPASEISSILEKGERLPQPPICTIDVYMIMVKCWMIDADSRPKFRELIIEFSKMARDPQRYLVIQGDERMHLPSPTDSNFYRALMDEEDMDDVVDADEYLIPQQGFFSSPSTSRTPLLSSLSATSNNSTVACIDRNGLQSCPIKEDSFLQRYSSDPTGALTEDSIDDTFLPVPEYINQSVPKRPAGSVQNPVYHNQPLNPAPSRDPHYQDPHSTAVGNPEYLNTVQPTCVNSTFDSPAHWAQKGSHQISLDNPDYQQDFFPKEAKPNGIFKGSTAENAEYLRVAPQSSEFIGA
Chain of Vascular endothelial growth factor receptor 1 (P17948 whole entry): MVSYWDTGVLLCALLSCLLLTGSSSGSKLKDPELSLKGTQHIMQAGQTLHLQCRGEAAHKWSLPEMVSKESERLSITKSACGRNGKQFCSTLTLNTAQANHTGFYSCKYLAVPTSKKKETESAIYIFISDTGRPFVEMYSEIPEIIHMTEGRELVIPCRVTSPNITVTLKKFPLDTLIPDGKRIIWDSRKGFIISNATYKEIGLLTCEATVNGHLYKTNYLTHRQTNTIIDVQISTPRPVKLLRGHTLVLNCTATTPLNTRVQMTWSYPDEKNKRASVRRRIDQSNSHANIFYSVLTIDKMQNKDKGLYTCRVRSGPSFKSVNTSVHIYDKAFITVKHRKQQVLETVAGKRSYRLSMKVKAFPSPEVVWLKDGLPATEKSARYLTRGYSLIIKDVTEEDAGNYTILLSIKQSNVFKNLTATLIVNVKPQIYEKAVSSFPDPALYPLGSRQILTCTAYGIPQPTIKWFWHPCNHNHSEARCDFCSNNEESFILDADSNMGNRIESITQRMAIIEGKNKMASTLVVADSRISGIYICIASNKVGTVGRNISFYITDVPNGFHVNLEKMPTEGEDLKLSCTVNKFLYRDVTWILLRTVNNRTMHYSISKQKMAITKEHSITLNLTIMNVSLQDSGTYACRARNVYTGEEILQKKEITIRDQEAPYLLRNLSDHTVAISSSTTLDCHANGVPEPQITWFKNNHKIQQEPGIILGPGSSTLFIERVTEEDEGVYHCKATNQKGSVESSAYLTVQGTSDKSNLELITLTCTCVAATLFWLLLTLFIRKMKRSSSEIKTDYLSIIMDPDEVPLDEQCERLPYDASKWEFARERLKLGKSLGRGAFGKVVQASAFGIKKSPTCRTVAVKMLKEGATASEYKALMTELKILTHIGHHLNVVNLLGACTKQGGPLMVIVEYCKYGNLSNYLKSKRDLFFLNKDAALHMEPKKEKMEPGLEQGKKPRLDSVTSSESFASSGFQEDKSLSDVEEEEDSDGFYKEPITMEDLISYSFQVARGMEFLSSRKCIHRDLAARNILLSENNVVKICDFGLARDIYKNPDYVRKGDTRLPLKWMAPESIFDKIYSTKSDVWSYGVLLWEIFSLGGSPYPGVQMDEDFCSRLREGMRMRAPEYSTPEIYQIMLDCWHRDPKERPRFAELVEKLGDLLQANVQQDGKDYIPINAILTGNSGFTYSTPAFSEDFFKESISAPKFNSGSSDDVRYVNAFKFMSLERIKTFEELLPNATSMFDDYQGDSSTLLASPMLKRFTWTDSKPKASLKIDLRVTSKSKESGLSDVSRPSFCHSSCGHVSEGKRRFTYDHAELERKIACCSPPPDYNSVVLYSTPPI

CCCCCCCCCc1ccc(O)cc1 [4-NONYLPHENOL]
Not Active: IC50 [1] | IC50 [2] | IC50 [3] | IC50 [4] | IC50 [5] | Ki [5] | IC50 (Progesterone receptor) | IC50 (Neutrophil elastase) | IC50 [6] | IC50 (Cytochrome P450 2C19) | Ki (Cytochrome P450 2C19)

COc1ccc2c(c1)c(CC(=O)OCC(=O)O)c(C)n2C(=O)c1ccc(Cl)cc1 [ACEMETACIN]
Not Active: IC50 [1] | IC50 [2] | IC50 [3] | IC50 [4] | IC50 [5] | Ki [5] | IC50 (Progesterone receptor) | IC50 (Neutrophil elastase) | IC50 [6] | IC50 (Cytochrome P450 2C19) | Ki (Cytochrome P450 2C19)

CCCSc1ccc2nc(NC(=O)OC)[nH]c2c1 [ALBENDAZOLE]
Not Active: IC50 [1] | IC50 [2] | IC50 [3] | IC50 [4] | IC50 [5] | Ki [5] | IC50 (Progesterone receptor) | IC50 (Neutrophil elastase) | IC50 [6] | IC50 (Cytochrome P450 2C19) | Ki (Cytochrome P450 2C19)

Cc1[nH]cnc1CN1CCc2c(c3ccccc3n2C)C1=O [ALOSETRON]
Not Active: IC50 [1] | IC50 [2] | IC50 [3] | IC50 [4] | IC50 [5] | Ki [5] | IC50 (Progesterone receptor) | IC50 (Neutrophil elastase) | IC50 [6] | IC50 (Cytochrome P450 2C19) | Ki (Cytochrome P450 2C19)

NCC[C@H](O)C(=O)N[C@@H]1C[C@H](N)[C@@H](O[C@H]2O[C@H](CN)[C@@H](O)[C@H](O)[C@H]2O)[C@H](O)[C@H]1O[C@H]1O[C@H](CO)[C@@H](O)[C@H](N)[C@H]1O [AMIKACIN]
Not Active: IC50 [1] | IC50 [2] | IC50 [3] | IC50 [4] | IC50 [5] | Ki [5] | IC50 (Progesterone receptor) | IC50 (Neutrophil elastase) | IC50 [6] | IC50 (Cytochrome P450 2C19) | Ki (Cytochrome P450 2C19)

CCOC(=O)OC(C)OC1=C(C(=O)Nc2ccccn2)N(C)S(=O)(=O)c2ccccc21 (centres undefined) [AMPIROXICAM]
Not Active: IC50 [1] | IC50 [2] | IC50 [3] | IC50 [4] | IC50 [5] | Ki [5] | IC50 (Progesterone receptor) | IC50 (Neutrophil elastase) | IC50 [6] | IC50 (Cytochrome P450 2C19) | Ki (Cytochrome P450 2C19)

N#C[C@H](O[C@@H]1O[C@H](CO[C@@H]2O[C@H](CO)[C@@H](O)[C@H](O)[C@H]2O)[C@@H](O)[C@H](O)[C@H]1O)c1ccccc1 [AMYGDALIN]
Not Active: IC50 [1] | IC50 [2] | IC50 [3] | IC50 [4] | IC50 [5] | Ki [5] | IC50 (Progesterone receptor) | IC50 (Neutrophil elastase) | IC50 [6] | IC50 (Cytochrome P450 2C19) | Ki (Cytochrome P450 2C19)

N=C(N)NCCCCNC(=N)N.O=S(=O)(O)O [ARCAINE SULFATE]
Not Active: IC50 [1] | IC50 [2] | IC50 [3] | IC50 [4] | IC50 [5] | Ki [5] | IC50 (Progesterone receptor) | IC50 (Neutrophil elastase) | IC50 [6] | IC50 (Cytochrome P450 2C19) | Ki (Cytochrome P450 2C19)

C=C1[C@@H]2CCC3[C@@](CC[C@@H]4[C@H](C(=O)O)C[C@@H](O[C@@H]5O[C@H](CO)[C@@H](OS(=O)(=O)[O-])[C@H](OS(=O)(=O)[O-])[C@H]5OC(=O)CC(C)C)C[C@@]34C)(C2)[C@@H]1O.[K+].[K+] (some centres undefined) [ATRACTYLOSIDE]
Not Active: IC50 [1] | IC50 [2] | IC50 [3] | IC50 [4] | IC50 [5] | Ki [5] | IC50 (Progesterone receptor) | IC50 (Neutrophil elastase) | IC50 [6] | IC50 (Cytochrome P450 2C19) | Ki (Cytochrome P450 2C19)
